Results reported in US20200163342A1, “MIXTURES COMPRISING A BIOPESTICIDE AND A NITRIFICATION INHIBITOR” (BASF SE, priority 2017, published 2020).
Bridge positions count the residues as written; N and C are the ends. Square brackets hold non-standard residues; d marks the D form. Peptide text beside a SMILES is read from it. * marks the point of attachment. ξ: configuration not given here. Pentadecanoyl(3ξ-OH,15-Gua) = N=C(N)NCCCCCCCCCCCCC(O)CC(=O)*; d(aThr) = C[C@@H](O)[C@@H](N)C(=O)O; Thr(3ξ) = CC(O)[C@H](N)C(=O)O; ξY = NC(Cc1ccc(O)cc1)C(=O)O

Experiments:
[1] = test system: soybean (Glycine max 'Sultana'); experiment: Greenhouse detection of plant biomass (fresh weight), soybean; format: in vivo; conditions: 17 days after start, with AS liquid, DMPSA 1% of NH4-N where present
Protocol: (§1) Plants were generally grown under standard green house conditions (20° C. and 60% humidity) using standard greenhouse soil (mixture of peat, loam and sand). Therefore, 0.4 g of ryegrass seeds (Lolium perennes ‘Chagall’), 1 soybean seed (Glycine max ‘Sultana’) or 1 grape vine live stack (Vitis vinifer ssp. ‘Sativa’) were grown per pot (8.4 cm for ryegrass, soybean; 13 cm for grape vine) in a completely randomized set-up. Following a growth period of ten days (ryegrass), 14 days (soybean) or approx. 21 days, until the main shoot reached a length of 20 cm (grape vine), plants were designated for experimental usage.
Detection of ryegrass and soybean biomass (fresh weight) was determined gravitometricallly. Therefore, plants were cut using a hand held lawn cutter (ryegrass) or garden shears (soybean) 1 cm above the soil. Given ryegrass data represent the mean value of respective replicates summed up for 3 cuttings. For experiments using ryegrass, evaluations were conducted 5, 12 and 17 days after start of the experiment. For experiments using soybean, biomass evaluation was conducted 17 days after experimental start.
(§2) In Table N1, the weight ratio between DMPSA and Histick Super is 3.65:1, the weight ratio between DMPSA and Hicoat is 10.43:1.

N2O emissions from soils = experiment: Greenhouse detection of nitrous oxide losses (N2O emission), soybean pots; format: in vivo, Glycine max 'Sultana'; conditions: DMPSA 1% of NH4-N where present
Protocol: as §1
On application day (DATO), each pot (with/without plants) was set onto a plant saucer designed with an inner compartment for the pot and an outer ring that is filled with water. At time 0, water holding capacity of the soil was set to 60-70% prior to application with/without fertilizer and active ingredient. Subsequently, a gas sampling chamber was placed over the plant saucer such that the rim fit into the ring filled with water to create a gas-tight chamber and 25 cc air from the chamber were drawn into a syringe and immediately emptied in to a Vacutainer (Labco, 12 ml volume). This equals the Time 0 measurement for each pot. The same procedure was performed with all pots in the experiment. After two hour incubation time, again 25 cc air samples were taken from the gas chambers and emptied into Vacutainers as described above. Plants were then returned to their positions in the climate chamber. The procedure was repeated at precisely the same time of day for up to 19 days.
Samples were analyzed in a Shimadzu 2014 GC equipped with an ECD system.
as §2

[2] = test system: grape vine (Vitis vinifer ssp. 'Sativa'); experiment: Greenhouse shoot elongation, grape vine; format: in vivo; conditions: grape vine main shoot elongation, 17 days after start; DMPSA 1% of NH4-N, VitoVin 12481 g/ha
Protocol: as §1
For experiments using grape vine, elongation of the main shoot was measured metrically 17 days after experimental start.
In Table N2, the weight ratio between DMPSA and VitoVin is 1:5.6.

cultured parsley cells = conditions: WO2006/016558; EP1 788 074 A1; cited from earlier work
Fusarium oxysporum = conditions: WO2006/016558; EP1 788 074 A1; cited from earlier work
[3] = test system: Fusarium oxysporum, Aspergillus niger, Aspergillus oryzae, and Penicillum thomii; conditions: J. Antibiotics 49(2), 129-135, 1996; 50(3), 220-228, 1997; cited from earlier work
[4] = test system: clinically relevant fungi and gram-positive bacteria such a Staphylococcus aureus; conditions: variety of clinically relevant fungi and gram-positive bacteria; ChemMedChem 7, 871-882, 2012; cited from earlier work
[5] = test system: Fusarium moniliforme, F. oxysporum, F. roseum, Giberella fujkuroi, Helminthosporium sesamum and Penicillium expansum; conditions: J. Antibiotics 40(11), 1506-1514, 1987; cited from earlier work

For “2-(3,4-dimethyl-1H-pyrazol-1-yl)succinic acid (DMPSA1) and/or 2-(4,5-dimethyl-1H-pyrazol-1-yl)succinic acid (DMPSA2)”, the “Biomass increase [% of fertilized control]” value [1] was 83 % of fertilized control, the “net Biomass increase” value [1] was -2.47 g and the N2O emission ppb (N2O emissions from soils; with AS liquid (ammonium sulfate, 219000 g/ha NH4-N)) was 38 ppb. For the same molecule, the “N2O emission ppb net emission” value (N2O emissions from soils; with AS liquid) was 38 ppb, the “% inhibition (N2O emission)” value (N2O emissions from soils; with AS liquid, relative to soybean untreated + AS liquid) was 19% and the “relative Growth increase [% of control]” value [2] was 104 % of control.
In the case of `CC(C)[C@@H]1NC(=O)[C@@H](C(C)C)NC(=O)[C@@H](NC(=O)CC(O)CCCCCCCCCCCCN=C(N)N)C(C)OC(=O)[C@@H](C)NC(=O)[C@@H](CCC(N)=O)NC(=O)[C@@H]([C@H](C)O)NC1=O` (stereo in doubt) [fusaricidin B], the “induction of resistance reactions in cultured parsley cells” value (cultured parsley cells) is listed as “induce resistance reactions”, the “inhibition of growth of Fusarium oxysporum” value (Fusarium oxysporum) is listed as “inhibit growth” and the “inhibition of plant pathogenic fungi” value [3] is listed as “inhibit plant pathogenic fungi”.
For `CC(C)[C@@H]1NC(=O)[C@@H](C(C)C)NC(=O)[C@@H](NC(=O)CC(O)CCCCCCCCCCCCN=C(N)N)[C@@H](C)OC(=O)[C@@H](C)NC(=O)[C@@H](CC(N)=O)NC(=O)[C@@H]([C@@H](C)O)NC1=O` (stereo partly drawn) [fusaricidin A] ({Pentadecanoyl(3ξ-OH,15-Gua)}-T[dV]V[d(aThr)][dN][dA]; ester 1-C), the “induction of resistance reactions in cultured parsley cells” value (cultured parsley cells) is listed as “induce resistance reactions”, the MIC value range [4] is listed as 0.78 to 3.12 µg/mL and the “inhibition of growth of Fusarium oxysporum” value (Fusarium oxysporum) is listed as “inhibit growth”. The “inhibition of plant pathogenic fungi” value [3] was “inhibit plant pathogenic fungi”.
For `CC1OC(=O)[C@@H](C)NC(=O)[C@@H](CC(N)=O)NC(=O)[C@@H]([C@H](C)O)NC(=O)C(Cc2ccc(O)cc2)NC(=O)[C@@H](C(C)C)NC(=O)[C@H]1NC(=O)CC(O)CCCCCCCCCCCCN=C(N)N` (stereo partly drawn) [fusaricidin C] ({Pentadecanoyl(3ξ-OH,15-Gua)}-[Thr(3ξ)][dV][ξY][dT][dN][dA]; ester 1-C), the “inhibition of plant pathogenic fungi” value [3] is listed as “inhibit plant pathogenic fungi”.
In the case of `CC1OC(=O)[C@@H](C)NC(=O)[C@@H](CCC(N)=O)NC(=O)[C@@H]([C@H](C)O)NC(=O)C(Cc2ccc(O)cc2)NC(=O)[C@@H](C(C)C)NC(=O)[C@H]1NC(=O)CC(O)CCCCCCCCCCCCN=C(N)N` (stereo partly drawn) [fusaricidin D] ({Pentadecanoyl(3ξ-OH,15-Gua)}-[Thr(3ξ)][dV][ξY][dT][dQ][dA]; ester 1-C), the “inhibition of plant pathogenic fungi” value [3] is listed as “inhibit plant pathogenic fungi”.
In the case of fusaricidin LI-F05, the “antifungal activity against various plant pathogenic fungi” value (shortened to “antifungal activity”) [5] is given as “certain antifungal activity”.
In the case of fusaricidin LI-F07, the “antifungal activity” value [5] is given as “certain antifungal activity”.
For fusaricidin LI-F08, the “antifungal activity” value [5] is listed as “certain antifungal activity”.
